Assay results taken from US20050239873A1 (priority 1999, published 2005).
Like-named read-outs stand apart in the source and are kept apart here.

What was measured:
cytochrome bc1 = cytochrome bc1 (Bos taurus, UniProt P00157); conditions: cited from earlier work
RPMI-8226 = assay: Propidium iodide exclusion / flow cytometry cytotoxicity; assay type: cell-based, human; conditions: for mode of induced cell death: annexin V, sub-G1 DNA content, mitochondrial membrane potential
Description: Cell survival was assayed by exclusion of propidium iodide (PI; 10 μg/ml) by unfixed cells. Annexin V-FITC (Pharmingen) or 3, 3′-dihexyloxacarbocyanine iodide (DiOC6(3); Molecular Probes) staining was analyzed together with PI to discriminate early apoptotic cells. Apoptotic cells were also measured as sub-G1 events among ethanol-fixed cells stained with 10 μg/ml PI. All cell samples were analyzed using a benchtop FACSCalibur™ (Becton Dickinson, San Jose, Calif.). Flow data were analyzed using MultiCycle AV software (Phoenix Flow Systems). For intracellular pH measurements, cell pellets were washed once and resuspended in 2 ml of HEPES-buffered medium (no phenol red and no serum). Carboxy-SNARF-1-AM (Molecular Probes, 1 mM stock in DMSO, stored at −20° C.) was added to a final concentration of 10 μM, and the cells were incubated for 30 min at 37° C. Following incubation with SNARF, cells were sedimented and the pellets were held on ice. Immediately before analysis, pellets were resuspended in […] (HBSS; experimental buffer) or high-[K+] buffer containing nigericin (calibration samples).

Stability in plasma = assay type: in vitro ADME, human; conditions: for stability: 37° C., 60 min
Description: For analysis of samples, two volumes of cold methanol-acetonitrile (50:50, v/v) were added to portions of plasma, culture medium, or cell extract. The preparations were mixed and then centrifuged to obtain clear supernatants, which were dried at room temperature by compressed air. The residues were dissolved in the mobile phase, and a portion was injected onto the HPLC column.
The HPLC equipment consisted of a Hewlett Packard 1050 ChemStation with a fluorescence detector (Agilent 100 series). […] The mobile phase was methanol:ammonium acetate buffer (87:13 v/v; 0.2 M; pH 5.8, adjusted with HCl). The flow rate was 1 ml/min. The column elute was monitored fluorometrically at an excitation wavelength of 232 nm and an emission wavelength of 418 nm. The amounts of test compounds present in samples were determined from the peak areas.
Samples of mouse, rat, dog, and human plasma were incubated at 37° C. with and without addition of NaF (2.5 mg/ml) and EDTA (1 mg/ml). To these preparations, 2-OMe antimycin A1, 2-OMe antimcyin A2, 2-OMe antimycin A3, or 2-OMe antimycin A5, dissolved in methanol, was added to final concentrations of 500 ng/ml. Portions of plasma, taken at selected times after addition of the 2-OMe antimycin analog, were extracted and analyzed.
Similarly, the stability of 2-OMe antimycin A1, 2-OMe antimycin A2, […] in the plasma from mice and humans was evaluated at −80° C. From these preparations, portions were analyzed immediately; other portions were stored at -80° C. and analyzed after 1, 2, and 4 weeks.

plasma proteins = assay: Binding to plasma proteins (ultrafiltration); assay type: in vitro ADME, human; conditions: presence of NaF+EDTA, 1000 ng/ml
Description: Solutions of 2-OMe antimycin A3 were diluted with plasma (dog or human) containing NaF+EDTA to final concentrations of 1.0 or 0.2 μg/ml. Controls were diluted with water to the same final concentrations. These preparations were incubated at 37° C. for 20 min, at which time portions were taken and placed in the sample reservoirs of Amicon Centrifree® ultrafiltration systems (Millipore Co., Bedford, Mass.). At 37° C., the filter systems were centrifuged until the reservoirs were dry. From each filtrate, portions were taken for analysis by HPLC. The amounts present were designated as “free drug” (F). The concentrations of the unfiltered solutions were also determined by triplicate analyses. This amount represented the “total drug” concentration (T). The percentage of 2-OMe antimycin A3 bound to plasma proteins was calculated by the following formula: % bound=((T−F)/T)×100

[1] = Pharmacokinetic evaluation in Fischer 344 rats; assay type: in vivo, rat; conditions: intravenous 0.25 mg/kg; for amount detectable in plasma: 2 hr after dosing; for amounts in the urine, livers, or kidneys: 24 hr after dosing
Description: Male Fischer 344 rats (five/group) were dosed via a lateral tail vein with either 2-OMe-A1 or 2-OMe-A3 (0.25 mg/kg) administered as a 1-min intravenous push. The dosing vehicle was the same as that used for mice. The dosing volume was 1.3 ml/kg. Blood samples were collected and analyzed. Further, samples of plasma, urine, livers, and kidneys were collected from rats kept in metabolism cages for 24 hr. To retard the breakdown of the test compounds, NaF+EDTA was present in the tubes used for collecting blood and urine and was added to tissue homogenates.
Pharmacokinetic values were derived with WinNonlin® software (Mountain View, Calif.).

RPMI-8226 cells = assay: GI50 assay (MTT); assay type: cell-based, human; conditions: 48 h, MTT
Description: RPMI 8226 cells were grown in 96 well plates for 24 h prior to addition of 2-methoxy Antimycins. Antimycin stocks in DMSO were serially diluted in RPMI media. Cells were incubated for 48 h with compounds at final compound concentrations ranging from 10^−4 to 10^−8 M. MTT assays were performed in quadruplicate and percent growth inhibitions were calculated as (A570 (control cells)—A570 (treated cells))/A570 (control cells). The GI50 was extrapolated from semi-log plots of the dose response for each compound. […] After 72 h drug exposures, 1 μCi/ml [^3H]-thymidine was added to wells. Cells were incubated for an additional 24 h, and then transferred to GF/C filter plates (Packard) using a plate washer. Filters were dried, added to scintillant, and counted in a TopCount scintillation counter (Packard). Drug response was expressed as the percentage of vehicle-treated controls, and each value shown as the average of three determinations.

[2] = tested on: mitochondria from TABX2S cells (high levels of Bcl-xL); assay: JC-1 membrane potential of isolated mitochondria; parameters: species or system murine
Description: Isolated mitochondria were loaded with JC-1 prior to treatment, and mitochondrial labeling was determined using FACS. […] Antimycin A-treated mitochondria with high levels of Bcl-xL had lower levels of JC-1 staining than parallel samples treated with CCCP. Uncoupled mitochondria still retain a significant Donnan potential because of trapped anionic species and it is likely that antimycin-induced PT and/or swelling of mitochondria led to a further reduction of this residual potential.
As observed for the parent compound, antimycin A3, mitochondria with normal levels of BCl-xL expression were not affected by the 2-methoxy analog.

2-methoxy antimycin A [2-OMeA]
reduction of oxidative phosphorylation inhibitory activity at complex III (cytochrome bc1; relative to antimycin A): 1000 fold | cell killing measured as PI uptake, compared with antimycin A (RPMI-8226; 5 and 20 μg/ml, three cell lines): similar | mode of induced cell death (RPMI-8226): apoptosis

CCCCCC[C@H]1C(=O)O[C@H](C)[C@H](NC(=O)c2cccc(NC=O)c2OC)C(=O)O[C@@H](C)[C@@H]1OC(=O)CC(C)C [2-OMeA1, 2-methoxy antimycin A1]
stability (Stability in plasma; presence of NaF/EDTA): moderately stable | amounts remaining after 4 weeks (Stability in plasma; -80° C., presence of NaF/EDTA): 93% | amounts remaining after 4 weeks (Stability in plasma; −80° C., absence of NaF/EDTA): 86% | Protein binding, Human (plasma proteins): 99.5% | amount detectable in plasma [1]: little or no | amounts in the urine, livers, or kidneys [1]: little or no detectable amounts | AUC [1]: 0.047 µg·h/mL | Cmax [1]: 0.97 µg/mL | MRT [1]: 3.3 min | T1/2 [1]: 2.3 min | Vss [1]: 0.29 mL/g | GI50 (RPMI-8226 cells): 8.56 µM

CCCC[C@H]1C(=O)OC(C)[C@H](NC(=O)c2cccc(NC=O)c2OC)C(=O)O[C@@H](C)C1OC(=O)CC(C)C (stereo partly drawn) [2-OMeA3, Antimycin A3 methyl ether]
activity as an inhibitor of cytochrome bc1 (cytochrome bc1): inactive | stability (Stability in plasma; presence of NaF/EDTA): notable decreases in concentration | amounts remaining after 4 weeks (Stability in plasma; -80° C., presence of NaF/EDTA): 95% | amounts remaining after 4 weeks (Stability in plasma; −80° C., absence of NaF/EDTA): 73% | mitochondrial depolarization (JC-1) ([2]; 2 μg/ml): strongly depolarized | Protein binding, Human (plasma proteins): 99.9% | amount detectable in plasma [1]: little or no | amounts in the urine, livers, or kidneys [1]: little or no detectable amounts | half-life ([1]; male, Fischer 344, rat, plasma): 1 min | AUC ([1]; male, Fischer 344, rat, plasma, read-out: AUC): 0.018 µg·h/mL | Cmax ([1]; male, Fischer 344, rat, plasma, read-out: Cmax): 0.92 µg/mL | MRT ([1]; male, Fischer 344, rat, plasma, read-out: MRT (converted)): 1.4 min | Vd ([1]; male, Fischer 344, rat, plasma, read-out: Vss): 0.37 L/kg | GI50 (RPMI-8226 cells; Homo sapiens, RPMI-8226): 10.2 µM

antimycin A
decrease in ΔΨm (JC-1) ([2]; vs control mitochondria (TABX1A)): much greater decrease in ΔΨm | time of treatment at which cell death was demonstrated (RPMI-8226): ≤ 8 h | sensitivity (PI exclusion) (RPMI-8226; 5 to about 20 μg/ml): sensitive | mode of induced cell death (RPMI-8226): apoptosis
